Assay results taken from patent US10525026B2, “Intravenous administration of citrulline during surgery” (Vanderbilt University, priority 2015, dated 2020).

Key:
[1] = Phase IB single-blind, randomized, placebo controlled PK and safety study of IV L-citrulline in children and infants undergoing CPB; type: in vivo
Experimental: A multicenter, Phase IB single-blind, randomized, placebo controlled study was conducted to determine the pharmacokinetics (PK) and safety of IV L-citrulline administration to children and infants undergoing cardiopulmonary bypass (CPB) for surgical repair of congenital heart defects.
The primary objective of the study was to determine if a revised protocol of intravenous (IV) L-citrulline delivery given peri-operatively achieved a plasma citrulline level of >100 μmol/L in the group given citrulline and to compare that to citrulline levels in the placebo group, during follow-up in children undergoing surgical repair of an atrial septal defect (ASD) and/or a ventricular septal defect (VSD) or a partial or complete atrioventricular septal defect (AVSD).
Twenty two (22) patients were enrolled and treated. The patients received study drug or placebo infusion according to a fixed dosing protocol starting at the initiation of CPB until 48 hours postoperatively or until removal of the arterial line. Study participation ended at discharge or at Day 28 whichever came first. The dosing regimen was designed to maintain plasma citrulline levels in the face of extended hemofiltration.
Plasma citrulline concentration levels were the primary PK variable; these were assessed in blood samples collected at 7 perioperative time points. Secondary PK variables were concentrations of arginine and nitric oxide (NO) metabolites in the same sample set. PK values were compared between groups.
Subjects received an IV citrulline bolus of 150 mg/kg or placebo at the initiation of CPB, followed by the addition of L-citrulline at a concentration of 200 μmol/L or placebo to the filtration or hemoconcentration replacement fluid used during CPB. A citrulline bolus of 20 mg/kg was administered 30 minutes after decannulation from CPB, immediately followed by a 9-mg/kg/hr continuous infusion of citrulline or placebo for 48 hours.
Primary safety assessments included hemodynamic monitoring to identify clinically significant hypotension using age-specific limits. Adverse event information was collected, and postoperative bleeding was recorded.
Further safety, laboratory, and clinical assessments were performed from baseline to discharge, secondary clinical variables included: postoperative mechanical ventilation, duration of total respiratory support, hemodynamic improvement, postoperative PVT by echocardiogram, serum creatinine and liver enzymes, inotrope score, duration of chest tube usage, length of intensive care unit stay, length of hospitalization and survival.
The duration of postoperative invasive mechanical ventilation was derived as the time in hours from separation from cardiopulmonary bypass until endotracheal extubation. If a patient required reintubation within 24 hours after extubation, the reintubation time was added in the main analysis. In a second analysis, the reintubation time was not included.

[2] = Intravenous citrulline in piglets: safety and effect on serum arginine levels; type: in vivo, Duroc swine; details: 600 mg/kg IV
Experimental: The objective was to assess the safety of intravenous citrulline and its effect on serum arginine levels in piglets. A total of 9 Duroc swine, aged 5-21 days, with a target minimum weight of 4 kg were utilized. All piglets underwent anesthetic induction and tracheostomy. Central lines were placed in the femoral artery and femoral vein and hemodynamics monitored continuously. Citrulline (600 mg/kg IV) was administered to 5 piglets. Saline was given to control animals. Serum amino acids were drawn before and each hour after citrulline administration.

[3] = Randomized, placebo controlled, double blind intravenous citrulline study (77 patients); type: in vivo, children; details: bolus plus infusion protocol, hemofiltration during CPB
Excerpt: An intravenous citrulline study conducted was a randomized, placebo controlled, double blind study with the primary clinical outcome being length of mechanical ventilation postoperatively and secondarily the incidence of postoperative pulmonary hypertension between the 2 treatment groups (citrulline vs placebo).
A total of 77 patients were enrolled at Vanderbilt Children's Hospital. Patients were screened based on the surgical schedule. Based on this schedule, patients undergoing one of the 5 planned cardiac surgeries included in this study were screened (patients undergoing the Norwood procedure are now excluded at the recommendation of the DSMB).
The study was stopped in preparation for a larger multicenter randomized placebo controlled trial. […] These hemofiltration techniques had changed during the study, and the investigators were not aware of these changes.

[4] = Revised dosing protocol for cardiac surgery, 22 patients randomized to placebo and citrulline; type: in vivo, children
Excerpt: The study in this example was undertaken to test a revised dosing protocol designed to achieve and maintain therapeutic citrulline levels in the face of ultrafiltration and crystalloid replacement. […] The study recruited 22 patients randomized in equal numbers of 11 patients each to placebo and citrulline arms. Early in the course of the study, it was recognized that one of the two participating centers routinely extubated all patients in the operating room immediately following cessation of cardiopulmonary bypass. This precluded use of the duration of mechanical ventilation as an endpoint. Instead, a post-hoc analysis was applied using the duration of all forms of ventilatory support as a possible endpoint. […] In contrast, contingency table analysis, shown in Table 5, did achieve borderline significance. Overall, the results are considered to represent a strong trend.

[5] = Perioperative intravenous L-citrulline pharmacokinetics, single bolus dose escalation in children undergoing congenital cardiac surgery; type: in vivo
Experimental: To determine clearance of a single bolus dose of IV citrulline and optimal dose frequency, a dose escalation design using three concentrations of IV citrulline: 50, 100, & 150 mg/kg was utilized. The dose of citrulline was given in the operating room immediately after cannulation and initiation of cardiopulmonary bypass. The overall goal was to achieve a sustained citrulline level of 100 μmol/L or more up to four hours after the initial dose. The four hour time point was selected to allow for the surgical procedure to be completed and the patient to return to the ICU postoperatively before further dosing.
Patients were then enrolled using this revised protocol of a combination of a bolus dose of 150 mg/kg in the OR on CPB and a continuous infusion of 9 mg/kg/hr started postop in the PICU at 4 hours after the initial bolus dose.

[6] = Perioperative oral citrulline supplementation in children undergoing congenital cardiac surgery; type: in vivo
Experimental: 40 patients with one of the 5 surgical diagnoses identified above were randomized to receive 5 doses of oral citrulline (1.9 grams/kg) vs. placebo. The first dose was administered immediately prior to surgery and the second dose immediately on arrival in the Pediatric ICU after surgery followed every 12 hours×3 doses.

[7] = Safety and pharmacokinetics of intravenous citrulline, open label dose escalation in children undergoing repair of congenital heart defects; type: in vivo; details: for concentration at 4 h: read-out: 4 hour trough citrulline level
Experimental: The initial goal was to test the safety and pharmacokinetics of three doses of intravenous citrulline in children undergoing surgical repair of specific congenital heart defects. […] An adverse drop in mean arterial pressure was defined as a greater than a twenty percent decrease from baseline. The baseline postoperative mean arterial blood pressure was calculated as the average of mean arterial blood pressure measurements collected every 5 minutes for the 30 minutes immediately preceding the administration of the postoperative dose or infusion.
The original doses selected were 200, 400, and 600 mg/kg based on data from previous animal studies. The original study design was a 4 arm study using the 3 doses and a placebo control.
After pharmacokinetic modeling, the study design was changed to a bolus dose of 150 mg/kg given in the OR on cardiopulmonary bypass followed 4 hours later by a continuous infusion of 9 mg/kg/hour for 48 hours. Another 9 patients were enrolled. The mean plasma levels of both citrulline and arginine in study patients (+IV citrulline) compared to patients in the observational cohort (−IV citrulline) are depicted in FIGS. 11A-B.

[8] = revised dosing protocol, contingency table, 11 patients per arm
[9] = bolus 150 mg/kg at beginning of surgery, 4 hours later continuous infusion 9 mg/kg/hr
[10] = original doses 200, 400, and 600 mg/kg intravenous, five patients

Compound: NC(=O)NCCCC(N)C(=O)O (stereo not drawn) [citrulline, 2-amino-5-(carbamoylamino)pentanoic acid]
- Plasma citrulline levels ([1]; bolus 150 mg/kg, 200 μmol/L in filtration fluid, bolus 20 mg/kg, infusion 9 mg/kg/hr for 48 hours): > 100 µmol/L
- Sustained plasma citrulline levels ([1]; bolus 150 mg/kg, 200 μmol/L in priming and hemofiltration fluid, bolus 20 mg/kg, infusion 9 mg/kg/hr for 48 hours): around 100 μmol/L
- Duration of invasive mechanical ventilation, Kaplan-Meier analysis versus placebo ([1]; excluding re-intubation, Wilcoxon p=0.0222, ANOVA t-test p=0.0317): reduced duration of mechanical ventilation
- Mean duration of invasive mechanical ventilation ([1]; including the reintubation time, placebo 37 hours): 5 h
- Composite durations of mechanical ventilation and inotrope therapy versus placebo ([1]; longer of the two durations, surrogate for ICU stay): shorter composite durations of mechanical ventilation and inotrope therapy
- Patients extubated in the operating room ([1]; one site, 6 patients per group, placebo 33%): 100%
- Hemodynamic instability [2]: No hemodynamic instability was observed
- Time of peak serum arginine levels following intravenous citrulline administration [2]: 1 to 2 h
- Arginine Levels Following intravenous citrulline ([2]; 1 hour post): 535.0 µmol/L
- Mean Arterial Blood Pressures Following intravenous Citrulline ([2]; 1 hour post): 67.4 mmHg
- Arginine Levels Following intravenous citrulline ([2]; 2 hours post): 559.8 µmol/L
- Mean Arterial Blood Pressures Following intravenous Citrulline ([2]; 2 hours post): 64.8 mmHg
- Arginine Levels Following intravenous citrulline ([2]; 3 hours post): 498.4 µmol/L
- Mean Arterial Blood Pressures Following intravenous Citrulline ([2]; 3 hours post): 62.2 mmHg
- Arginine Levels Following intravenous citrulline ([2]; Baseline): 131.5 µmol/L
- Mean Arterial Blood Pressures Following intravenous Citrulline ([2]; Pre-dose): 67.0 mmHg
- Reaching the sustained target plasma citrulline level of 100 μmol/L [3]: a majority who received citrulline did not reach the therapeutic sustained target plasma citrulline level
- Systolic and diastolic blood pressure versus placebo ([4]; FIG. 18A): No significant change in systolic and diastolic blood pressure
- Mean arterial pressure versus placebo ([4]; FIG. 18B): No significant change in the mean arterial pressure
- Inotrope scores versus placebo ([4]; particularly from 15 to 18 hours onward following ICU admission): markedly better inotrope scores
- Adverse effects upon hemodynamic parameters ([4]; revised dosing protocol): No adverse effects upon hemodynamic parameters were observed
- Number of patients with Duration of Respiratory Support >50 hours [4, 8]: 2
- Number of patients with Duration of Respiratory Support ≤50 hours [4, 8]: 7
- Adverse effects including hypotension ([5]; IV bolus 50, 100, 150 mg/kg): no adverse effects including hypotension
- ½ life of the bolus doses ([5]; IV bolus 50, 100, 150 mg/kg): 60 to 90 min
- concentration at 4 h ([5]; human, plasma, 150 mg/kg IV bolus after initiation of CPB, read-out: Four hour citrulline levels): ~100 µM
- Tolerability / adverse events of oral citrulline ([6]; 1.9 g/kg before CPB, postoperatively and every 12 hours for 48 hours): well tolerated with no evidence of significant adverse events
- Plasma citrulline levels ([6]; 5 doses of 1.9 grams/kg, vs. placebo 26, p=0.013): 36 µmol/L
- Adverse side effects ([7]; 50 mg/kg intravenous): No adverse side effects were noted
- Peak citrulline level ([7]; 50 mg/kg intravenous, patients 6 and 8): approximately 220 μmol/L
- Adverse side effects ([7]; 100 mg/kg intravenous): no adverse side effects were noted
- Peak citrulline level ([7]; 100 mg/kg intravenous, patients 9 & 10): 375 µmol/L
- Peak citrulline level ([7]; 150 mg/kg intravenous, patients 13-16): 660 µmol/L
- Adverse side effects [7, 9]: No adverse side effects were noted
- Sustained plasma citrulline levels [7, 9]: around 100 μmol/L
- Significant adverse events ([7]; bolus 150 mg/kg on CPB, 4 hours later infusion 9 mg/kg/hour for 48 hours): one significant adverse event but it was not related to the use of IV citrulline
- concentration at 4 h ([7]; human, plasma, 50 mg/kg intravenous, patients 6 and 8): 40 µM
- concentration at 4 h ([7]; human, plasma, 100 mg/kg intravenous, patients 9 & 10): 50 µM
- concentration at 4 h ([7]; human, plasma, 150 mg/kg intravenous, patients 13-16): 80 µM
- half-life ([7]; human, plasma, intravenous bolus 50, 100, 150 mg/kg): ~1.42 h
- Adverse effects [7, 10]: no adverse effects were noted
- Plasma levels achieved [7, 10]: very high
